Legend:
viral gp160 = biological target: T1, viral gp160 (Human immunodeficiency virus type 1 group M subtype B, UniProt P03377); type: binding, HIV; settings: for binding to viral gp160 of AIDS serum antibodies pre-adsorbed on the peptide and eluted: sera from AIDS affected subjects, HIV western blot stripes, FIGS. 5 and 6; for reactivity of sera / antibodies raised against native gp160 in HIV positive subjects with the peptide region: sera from HIV positive subjects
T1 construct: purchased SORIN BIOMEDICA, Saluggia, Italy
T1 sequence (P03377 33-861): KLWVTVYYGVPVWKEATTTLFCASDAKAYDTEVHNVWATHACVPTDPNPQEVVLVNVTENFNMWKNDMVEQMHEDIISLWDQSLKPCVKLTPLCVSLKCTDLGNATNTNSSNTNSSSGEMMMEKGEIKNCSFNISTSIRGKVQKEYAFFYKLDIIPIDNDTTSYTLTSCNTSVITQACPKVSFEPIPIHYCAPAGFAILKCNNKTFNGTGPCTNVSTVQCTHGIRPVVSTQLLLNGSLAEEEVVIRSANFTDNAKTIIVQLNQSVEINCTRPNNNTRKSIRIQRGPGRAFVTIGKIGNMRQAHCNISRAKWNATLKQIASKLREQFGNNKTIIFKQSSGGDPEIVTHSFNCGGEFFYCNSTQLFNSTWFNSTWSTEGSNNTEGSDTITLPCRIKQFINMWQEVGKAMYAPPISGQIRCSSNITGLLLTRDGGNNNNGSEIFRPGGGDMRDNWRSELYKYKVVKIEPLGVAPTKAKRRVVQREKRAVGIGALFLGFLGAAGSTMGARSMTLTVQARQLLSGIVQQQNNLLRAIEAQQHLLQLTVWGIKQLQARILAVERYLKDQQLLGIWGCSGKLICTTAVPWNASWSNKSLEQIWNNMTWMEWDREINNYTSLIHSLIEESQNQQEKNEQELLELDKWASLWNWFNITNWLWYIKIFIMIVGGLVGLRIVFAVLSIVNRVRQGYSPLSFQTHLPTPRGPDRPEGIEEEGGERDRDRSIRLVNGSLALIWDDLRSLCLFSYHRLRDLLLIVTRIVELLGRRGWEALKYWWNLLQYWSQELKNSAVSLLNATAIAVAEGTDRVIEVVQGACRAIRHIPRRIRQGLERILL
Method: Sera from AIDS affected subjects are immunoadsorbed on columns of either S. MAP HIV, or MAP HLA 11 or MAP HLA 12 peptide coupled Sepharose (CNBR activated sepharose 4B from […]) and eluted. 1 ml of Sepharose/peptide equilibrated with 0.1 M TRIS HCl pH 8 and 0.5 M NaCl buffer is incubated for 16 hours with 100 μl of serum, washed with 0.1 M TRIS HCl ph 8 and 0.5 M NaCl. The bound antibodies are eluted with a buffer containing 0.2 M glycine pH 2 and 0.5 M NaCl. The eluted antibodies are assayed on HIV western blot commercial stripes (SORIN BIOMEDICA, Saluggia, Italy) and detected using the chemio-luminescence system from […]. […] Lane M is obtained from one of the “in toto” sera and used as control.
The same test is carried out using two sera of AIDS affected patients (FIG. 6), pre-adsorbed with the S. MAP HIV peptide (lanes A and B) or with the HIV 9 peptide (lanes C and D), and eluted.

[1] = biological target: recombinant gp160 protein (Human immunodeficiency virus type 1 group M subtype B, UniProt P03377); settings: BALB/c female mice, subcutaneous, Freund's incomplete adjuvant, after third immunization; compared with control peptide serum (NMS); FIG. 1
Sequence of recombinant gp160 protein (P03377 33-861): as above
Method: S.MAP HIV and S. MAP HLA peptides are injected subcutaneously to BALB/c female mice together with Freund's incomplete adjuvant. After the third immunization (for a total of three immunizations at three week intervals) mice sera are tested by an ELISA assay with the recombinant gp160 protein (from Transgene, Strasbourg) as follows: microtiter plastic wells (NUNC) are coated with 0.2 μg of protein resuspended in phospahte buffer pH 9, for 1.5 hours at 37° C., followed by washing with phosphate buffer pH 7, and by further incubating for 1 hour at 37° C. with bovine serum albumin (BSA, 1 mg/ml), to saturate the free sites of solid phase. After three washings, diluted sera in PBS, comprising BSA 1% w/v, are incubated with the coated wells for 1 hour at 37° C. After five washings in PBS, a rabbit anti-mouse Igs serum (SIGMA), 1/1000 diluted, is added. After 45 min. incubation at 37° C., wells are washed five times and 100 μl of chromogen substrate is added to each well (SORIN BIOMEDICA, Saluggia, Italy). The adsorbance is read with an automatic ELISA reader (BIORAD).

[2] = test system: syncytium between HIV infected 8E51 LAV cells and not infected CD4+ MOLT3 cells; assay: Syncytium formation inhibition assay; type: cell-based; settings: mice sera; pre-immunization sera as specificity control; FIG. 9
Method: In order to check the ability to neutralize the viral infection of sera raised against the HLA homologous regions, mice sera are prepared by immunization with either S. MAP HLA or S. MAP HIV peptides. Sera are assayed for antibody ability to inhibit syncytium cells between HIV infected cells (8E51 LAV cells, AIDS Repository National Insitute of Health, Bethesda, Md. USA, “Journ. Exp. Medicine, 164, 280, 1986) and not infected, CD4+ cells (MOLT3 cells, AIDS Repository National Institute of Health, Bethesda, Md., USA). The syncytiums are counted at the optical microscope and the inhibition percentages are evaluated with reference to syncytiums in a control antibody-free cell culture. As specifity control, sera of mice before immunization are used.

| Sequence | binding to viral gp160 of AIDS serum antibodies pre-adsorbed on the peptide and eluted (viral gp160) | reactivity of sera / antibodies raised against native gp160 in HIV positive subjects with the peptide region (viral gp160) | other results |
| --- | --- | --- | --- |
| TQKYKRQAQ [MAP HLA 11] | bind similarly to the viral gp160 |  |  |
| SELYKYKVVK [MAP HIV 11] |  | react |  |
| IEPLGVAPT [MAP HIV 9] | do not show any reactivity | none of sera from HIV positive subjects are reactive |  |
| SELYKYKVVKIEPLGVAPTKAKRRVV [S. MAP HIV] | bind similarly to the viral gp160 |  | reaction of sera of peptide immunized mice with the recombinant gp160 protein [1]: react at significantly higher level; neutralization of viral fusion (syncytium inhibition) by antibodies of mice immunized with the peptide [2]: ability to neutralize the viral fusion |
| TQKYKRQAQADRVNLRKLRGYY [S. MAP HLA, synthetic peptide from HLA class I heavy chain α-1 domain, allele Cw4] |  |  | reaction of sera of peptide immunized mice with the recombinant gp160 protein [1]: react specifically; neutralization of viral fusion (syncytium inhibition) by antibodies of mice immunized with the peptide [2]: same ability to neutralize the viral fusion |
| NLRKLRGYY [MAP HLA 12] | bind similarly to the viral gp160 |  | binding to a 45 KD protein (likely HLA heavy chains) of AIDS serum antibodies pre-adsorbed on the peptide (viral gp160; one serum, lane E, FIG. 5): also bind to a 45 KD protein |
| PTKAKRRVV [MAP HIV 12] |  | react |  |

— patent US20020081566A1, “HIV PROTEIN EPITOPES IMMUNOLOGICALLY HOMOLOGOUS TO HLA” (priority 1992, published 2002)
